{"source": "patent US20050063956A1", "about": "“Method and device for attracting insects” (Colorado State University Research Foundation, priority 1998, published 2005)", "test_system": "western corn root worm larvae", "assay": "Glass bead Y-tube choice-test bioassay (Example 18)", "format": "in vivo, Diabrotica virgifera virgifera LeConte", "settings": "for CO2 selective response, choice between two concentrations: base 1, 2, 5, 10, 20 mmol/mol", "method": "Bioassay Apparatus. The choice-test bioassay apparatus (FIG. 34) was constructed from a glass Y-tube filled with glass beads to simulate the thigmotactic cues of the soil environment that are ordinarily encountered by western corn root worm larvae. The glass Y-tube was fabricated by a local glassblower (9.5 mm inside diameter, 60° angles, with each branch 3 cm long), and clamped to a ring stand with 2 branches of the “Y” facing down. A glass connection tube (4 cm long, 0.5 cm diameter) with a piece of vinyl screen (2.5-mm mesh) held over 1 end by a 0.5-cm section of Teflon tubing (6 mm inside diameter) was inserted snugly into the end of each of the arms of the Y-tube to support the glass beads. Glass beads (3 mm, cat. no. 11-312A, Fisher Scientific, Pittsburgh, Pa.) were poured into the top of the Y-tube, filling the entire apparatus to within 0.5 cm of the top (250 beads). A 5-mm NMR tube cap (cat. no. 100-0050, Drummond Scientific, Broomall, Pa.) was fitted into the other end of each glass connection tube, with a hole to allow snug insertion of a 20-cm piece of slender Teflon tubing (0.8 mm inside diameter) for introduction of volatile chemical cues into each arm of the bioassay apparatus. Two techniques were used to introduce candidate chemical cues into the 2 arms of the apparatus: 1 used shell vials as chemical sources, and the other used syringes as chemical sources.\nShell Vial Sources. In this 1st approach (FIG. 34), two 35-ml polyethylene syringes (cat. no. 106-0490, Sherwood Medical, St. Louis, Mo.) were filled with ambient air, and the air was pumped through shell vials containing candidate chemical cues. Glass shell vials (4 ml) with polyethylene caps were used (cat. no. B7785-1, Baxter Healthcare, McGaw Park, Ill.). A 35-ml syringe was snugly connected with slender Teflon tubing (20 cm) to a hole in the cap of the shell vial. A 2nd piece of slender Teflon tubing was used to connect the shell vial to 1 arm of the bioassay apparatus. The 2 syringes used for each bioassay were connected to a syringe pump (Sage Model 355, Fisher Scientific, Pittsburgh, Pa.) that provided an airflow through each shell vial containing a candidate chemical treatment, and subsequently into a choice arm of the bioassay apparatus. For the shell vial sources of candidate chemical compounds, the shell vial containing either a carbonated water dilution or a corn seed or cut corn roots was left open for 5 min to allow the gas concentrations to reach equilibrium. The vial was capped, and the syringe pump was started, providing an airflow of 1.0 ml/min from each syringe.\nSyringe Sources. In this 2nd approach (FIG. 39), 35-ml polyethylene syringes were filled directly with candidate chemical cues (such as the headspace from a container of germinating corn, a sample of CO2 mixed with air, or the headspace from a bottle of carbonated water). Each of the 2 syringes was connected with slender Teflon tubing to 1 arm of the bioassay apparatus. The 2 syringes used for each bioassay were connected to a syringe pump that was adjusted to provide an airflow of 1 ml/min from each syringe.\nBioassay Procedure. For bioassays, 20 newly hatched 1st instars (0-12 hours old) were collected from tubs containing eggs in soil (by using a camel's hair brush) and placed in a covered 5-mm NMR cap with 2 holes (1 mm diameter) drilled in the bottom (FIGS. 34 and 39). These holes were temporarily plugged with a piece of wire bent into a U-shape. The open end of the NMR cap was sealed with a small square of cellophane held in place with a plastic tube (a piece of soda straw) that fit snugly over the open end. The Y-tube apparatus was assembled and filled with glass beads and the appropriate treatment and control sources (shell vials or syringes) were connected to the arms of the Y-tube. The syringe pump was set to provide a flow of 1 ml/min and turned on. […]", "note": "“And” between values parts separate entries of the source, which are not always exact repeats. Identical values can stand only once. “Also recorded” adds a separate entry of the source.", "data": [{"molecule": "O=C=O", "note": "[CO2, carbon dioxide]", "values": [{"measurement": "CO2 selective response, equal amounts of CO2 on both sides", "setting": "1, 2, 5, 10, or 20 mmol/mol both sides", "result": "no significant differences in attraction were observed"}, {"measurement": "larval attraction at high CO2", "setting": "300 or 900 mmol/mol CO2", "result": "not attracted"}, {"measurement": "toxic symptoms of larvae at high CO2", "setting": "300 or 900 mmol/mol CO2", "result": "exhibited toxic symptoms; also recorded: lethargic when removed from the apparatus"}, {"measurement": "time to recover normal movement", "setting": "after removal from apparatus, 300 or 900 mmol/mol CO2", "result": "5 to 10", "unit": "min"}, {"measurement": "smallest difference between the 2 choices still attractive", "setting": "base 1 mmol/mol", "result": 0.125, "unit": "mmol/mol"}, {"measurement": "CO2 selective response, choice between two concentrations", "setting": "difference 0.125 mmol/mol", "result": "significantly greater attraction was observed to 1.125 mmol/mol than to 1 mmol/mol; also recorded: no difference in attraction was observed in any of the tests at higher concentrations"}, {"measurement": "CO2 selective response, choice between two concentrations", "setting": "difference 0.25 mmol/mol", "result": "more attracted to the higher CO2 concentration for 1 versus 1.25 mmol/mol (FIG. 48), and for 2 versus 2.25 mmol/mol; also recorded: no difference in attraction was observed for 5 versus 5.25 mmol/mol (FIG. 50), for 10 versus 10.25 (FIG. 51) mmol/mol, or for 20 versus 20.25 mmol/mol"}, {"measurement": "CO2 selective response, choice between two concentrations", "setting": "difference 0.50 mmol/mol", "result": "no difference in attraction was observed for 20 versus 20.50 mmol/mol"}, {"measurement": "excess of CO2 concentration over control at which larvae were first attracted", "setting": "selective response experiments", "result": 12.5, "unit": "%"}, {"measurement": "highest concentration of CO2 to which the larvae were attracted", "setting": "versus ambient air control", "result": "100 mmol/mol and 85.60±1.20 mmol/mol"}, {"measurement": "lowest concentration of CO2 attractive to the larvae", "setting": "versus ambient air control (0.91-0.99 mmol/mol)", "result": "1.125±0.04", "unit": "mmol/mol"}]}]}
